Usually IC50 stands for the concentration needed to halve the response being measured.

Drawing on patent US8232409B2, “Heterocyclic benzimidazoles as TRPM8 modulators” (Janssen Pharmaceutica N.V., priority 2008, dated 2012), this text covers inhibition and IC50 for 22 molecules.

Counter-ions that a name gives are not always drawn.

For the test, the target named is T1, canine TRPM8 (Canis lupus familiaris, UniProt Q1A7N1).
T1 construct: expressed in transfected cells
Briefly: In vitro canine TRPM8 functional assay (icilin-induced intracellular Ca2+, FLIPR/FDSS).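 On all read-outs here: intracellular Ca2+ tracked with a Ca2+-sensitive fluorescent dye, compound applied 5 min before icilin was added.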 The note with it: HEK293 cells stably expressing canine TRPM8; for inhibition at 0.2 µM: 0.200 μM compound, icilin challenge (~80% maximal response), read-out: % Inh. @ 0.200 μM; for IC50: icilin challenge, eight-point dose-response. In kind it is cell-based.

T1 sequence (Q1A7N1 1-1104): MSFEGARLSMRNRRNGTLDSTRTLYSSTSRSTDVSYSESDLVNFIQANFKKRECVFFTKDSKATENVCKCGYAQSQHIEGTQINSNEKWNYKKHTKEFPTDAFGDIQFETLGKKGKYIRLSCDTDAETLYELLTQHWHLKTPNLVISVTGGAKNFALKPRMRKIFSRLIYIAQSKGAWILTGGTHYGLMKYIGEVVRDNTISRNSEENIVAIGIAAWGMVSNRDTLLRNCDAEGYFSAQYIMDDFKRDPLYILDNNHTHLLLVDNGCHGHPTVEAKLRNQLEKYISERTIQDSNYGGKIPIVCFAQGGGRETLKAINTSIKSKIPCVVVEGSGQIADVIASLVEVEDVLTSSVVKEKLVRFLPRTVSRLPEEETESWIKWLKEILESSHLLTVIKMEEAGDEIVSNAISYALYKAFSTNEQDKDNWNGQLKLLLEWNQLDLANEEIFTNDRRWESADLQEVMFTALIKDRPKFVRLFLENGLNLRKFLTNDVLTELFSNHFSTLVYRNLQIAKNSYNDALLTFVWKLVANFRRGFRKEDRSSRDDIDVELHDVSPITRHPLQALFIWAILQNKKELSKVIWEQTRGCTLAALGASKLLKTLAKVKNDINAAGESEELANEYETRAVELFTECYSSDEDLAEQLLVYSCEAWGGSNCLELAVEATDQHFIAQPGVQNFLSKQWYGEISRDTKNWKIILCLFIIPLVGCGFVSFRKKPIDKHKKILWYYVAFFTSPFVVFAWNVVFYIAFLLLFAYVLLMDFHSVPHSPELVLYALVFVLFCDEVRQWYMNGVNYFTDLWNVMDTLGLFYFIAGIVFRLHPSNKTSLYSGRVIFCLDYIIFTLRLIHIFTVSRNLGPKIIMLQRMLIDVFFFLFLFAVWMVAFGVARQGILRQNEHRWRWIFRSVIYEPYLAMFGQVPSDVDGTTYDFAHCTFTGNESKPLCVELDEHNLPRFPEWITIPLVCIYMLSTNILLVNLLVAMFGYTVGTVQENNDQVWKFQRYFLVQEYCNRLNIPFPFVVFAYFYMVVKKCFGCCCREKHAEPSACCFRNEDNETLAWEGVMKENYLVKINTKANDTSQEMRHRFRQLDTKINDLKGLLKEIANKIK

On to `Cc1c(-c2ccccc2C(F)(F)F)ccc2[nH]c(C3=NOC4(CCCCC4)C3)nc12` [Cpd 24, 3-[4-Methyl-5-(2-trifluoromethyl-phenyl)-1H-benzimidazol-2-yl]-1-oxa-2-aza-spiro[4.5]dec-2-ene hydrochloride], for which the inhibition at 0.2 µM is 103% and the IC50 amounted to 5.6 nM.
Take `CC1(C)CCC2(CC1)CC(c1nc3cc(-c4ccccc4C(F)(F)F)cc(Cl)c3[nH]1)=NO2` [Cpd 41, 3-[7-Chloro-5-(2-trifluoromethyl-phenyl)-1H-benzimidazol-2-yl]-8,8-dimethyl-1-oxa-2-aza-spiro[4.5]dec-2-ene hydrochloride]: the inhibition at 0.2 µM is 92% and the IC50 turned out to be 50.2 nM.
`FC(F)(F)c1ccccc1-c1cc(Br)c2[nH]c(C3=NOC4(CCOCC4)C3)nc2c1` [Cpd 33, 3-[7-Bromo-5-(2-trifluoromethyl-phenyl)-1H-benzimidazol-2-yl]-1,8-dioxa-2-aza-spiro[4.5]dec-2-ene hydrochloride]: the inhibition at 0.2 µM is 100% and the IC50 is 1.7 nM.
Consider `FC(F)(F)c1ccccc1-c1ccc2[nH]c(C3=NCC4(CCCCC4)O3)nc2c1` [Cpd 4, 2-[5-(2-Trifluoromethyl-phenyl)-1H-benzimidazol-2-yl]-1-oxa-3-aza-spiro[4.5]dec-2-ene], for which the inhibition at 0.2 µM is 84%.
On the same count and under the same terms, for `Clc1ccccc1-c1ccc2[nH]c(C3=NOC4(CCCCC4)C3)nc2c1` [Cpd 45, 3-[5-(2-Chlorophenyl)-1H-benzimidazol-2-yl]-1-oxa-2-aza-spiro[4.5]dec-2-ene hydrochloride] the value was 97%.
As for `FC(F)(F)c1ccccc1-c1cnc2[nH]c(C3=NOC4(CCCCC4)C3)nc2c1` [Cpd 58, 2-(1-Oxa-2-aza-spiro[4.5]dec-2-en-3-yl)-6-(2-trifluoromethyl-phenyl)-3H-imidazo[4,5-b]pyridine hydrochloride], the inhibition at 0.2 µM came to 101% and the IC50 came to 2 nM.
Consider `CC1(C)CCC2(CC1)CC(c1nc3cc(-c4ccccc4C(F)(F)F)ccc3[nH]1)=NO2` [Cpd 36, 8,8-Dimethyl-3-[5-(2-trifluoromethyl-phenyl)-1H-benzimidazol-2-yl]-1-oxa-2-aza-spiro[4.5]dec-2-ene hydrochloride], for which the inhibition at 0.2 µM stood at 99% and it took 12.5 nM to reach half-maximal inhibition (IC50).
Turning to `Fc1cccc(F)c1-c1ccc2[nH]c(C3=NOC4(CCCCC4)C3)nc2c1` [Cpd 26, 3-[5-(2,6-Difluoro-phenyl)-1H-benzimidazol-2-yl]-1-oxa-2-aza-spiro[4.5]dec-2-ene trifluoroacetic acid salt], the inhibition at 0.2 µM amounted to 100%.
As for `FC(F)(F)Oc1ccccc1-c1cc(Cl)c2[nH]c(C3=NOC4(CCCCC4)C3)nc2c1` [Cpd 50, 3-[7-Chloro-5-(2-trifluoromethoxyphenyl)-1H-benzimidazol-2-yl]-1-oxa-2-aza-spiro[4.5]dec-2-ene methanesulfonate], the inhibition at 0.2 µM was found to be 101% and the midpoint of inhibition, the IC50, lay at 1.9 nM.
The like results for `CC1(C)CCC2(CC1)CC(c1nc3cc(-c4ccccc4C(F)(F)F)cc(C(F)(F)F)c3[nH]1)=NO2` [Cpd 39, 8,8-Dimethyl-3-[7-trifluoromethyl-5-(2-trifluoromethyl-phenyl)-1H-benzimidazol-2-yl]-1-oxa-2-aza-spiro[4.5]dec-2-ene hydrochloride] were, in that order, 99% and 6.3 nM.
For `FC(F)(F)c1ccccc1-c1ccc2[nH]c(C3=NC4(CCOCC4)CO3)nc2c1` [Cpd 29, 2-[5-(2-Trifluoromethyl-phenyl)-1H-benzimidazol-2-yl]-3,8-dioxa-1-aza-spiro[4.5]dec-1-ene] the same measures were 71% and 100 nM.
As for `Cc1cc(-c2ccccc2C(F)(F)F)cc2nc(C3=NOC4(CCCCC4)C3)[nH]c12` [Cpd 46, 3-[7-Methyl-5-(2-trifluoromethylphenyl)-1H-benzimidazol-2-yl]-1-oxa-2-aza-spiro[4.5]dec-2-ene hydrochloride], the inhibition at 0.2 µM was found to be 97% and the IC50 is 1.8 nM.
Regarding `COCCCc1cc(-c2ccccc2C(F)(F)F)cc2nc(C3=NOC4(CCCCC4)C3)[nH]c12` [Cpd 52, 3-[7-(3-Methoxy-propyl)-5-(2-trifluoromethylphenyl)-1H-benzimidazol-2-yl]-1-oxa-2-aza-spiro[4.5]dec-2-ene hydrochloride], the inhibition at 0.2 µM was found to be 97% and the midpoint of inhibition, the IC50, lay at 1 nM.
The like results for `Cc1cc(-c2ccccc2F)cc2nc(C3=NOC4(CCCCC4)C3)[nH]c12` [Cpd 47, 3-[7-Methyl-5-(2-fluorophenyl)-1H-benzimidazol-2-yl]-1-oxa-2-aza-spiro[4.5]dec-2-ene hydrochloride] were, in that order, 97% and 6.9 nM.
For `N#Cc1cc(-c2ccccc2C(F)(F)F)cc2nc(C3=NOC4(CCOCC4)C3)[nH]c12` [Cpd 35, 2-(1,8-Dioxa-2-aza-spiro[4.5]dec-2-en-3-yl)-6-(2-trifluoromethyl-phenyl)-3H-benzimidazole-4-carbonitrile hydrochloride] the same measures were 100% and 5.2 nM.
The like results for `Fc1ccccc1-c1ccc2[nH]c(C3=NOC4(CCOCC4)C3)nc2c1` [Cpd 31, 3-[5-(2-Fluoro-phenyl)-1H-benzimidazol-2-yl]-1,8-dioxa-2-aza-spiro[4.5]dec-2-ene hydrochloride] were, in that order, 99% and 13.4 nM.
With `FC(F)(F)c1ccccc1-c1cc2nc(C3=NOC4(CCCCC4)C3)[nH]c2cn1` [Cpd 57, 2-(1-Oxa-2-aza-spiro[4.5]dec-2-en-3-yl)-6-(2-trifluoromethyl-phenyl)-3H-imidazo[4,5-c]pyridine hydrochloride], the inhibition at 0.2 µM was 102% and the IC50 came out at 2.7 nM.
For `Cc1cc(-c2c(F)cccc2F)cc2nc(C3=NOC4(CCCCC4)C3)[nH]c12` [Cpd 48, 3-[7-Methyl-5-(2,6-difluorophenyl)-1H-benzimidazol-2-yl]-1-oxa-2-aza-spiro[4.5]dec-2-ene hydrochloride] the same measures were 97% and 3.9 nM.
The like results for `FC(F)(F)c1ccccc1-c1ccc2[nH]c(C3=NOC4(CCCCC4)C3)nc2n1` [Cpd 56, 2-(1-Oxa-2-aza-spiro[4.5]dec-2-en-3-yl)-5-(2-trifluoromethyl-phenyl)-1H-imidazo[4,5-b]pyridine hydrochloride] were, in that order, 101% and 4.6 nM.
Turning to `FC(F)(F)c1ccccc1-c1ccc2[nH]c(C3=NOC4(CCOCC4)C3)nc2c1` [Cpd 9, 3-[5-(2-Trifluoromethylphenyl)-1H-benzimidazol-2-yl]-1,8-dioxa-2-aza-spiro[4.5]dec-2-ene], the inhibition at 0.2 µM amounted to 101%.
Still for that read-out and setting: the same measure for `FC(F)(F)Oc1ccccc1-c1ccc2[nH]c(C3=NCC4(CCCCC4)O3)nc2c1` [Cpd 3, 2-[5-(2-Trifluoromethoxy-phenyl)-1H-benzimidazol-2-yl]-1-oxa-3-aza-spiro[4.5]dec-2-ene]: 60%.
Take `Fc1cccc(F)c1-c1cc(Cl)c2[nH]c(C3=NOC4(CCCCC4)C3)nc2c1` [Cpd 44, 3-[7-Chloro-5-(2,6-difluorophenyl)-1H-benzimidazol-2-yl]-1-oxa-2-aza-spiro[4.5]dec-2-ene methanesulfonate]: the inhibition at 0.2 µM turned out to be 100% and the IC50 came out at 2.1 nM.
